Test results from US4634706A, “Griseolic acid derivatives, and their use as enzyme inhibitors” (Sankyo Company Limited, priority 1983, dated 1987).

Key:
[1] = molecular target: cAMP PDE; assay: Phosphodiesterase (PDE) inhibitory activity, cAMP substrate; type: biochemical, rat; conditions: 0.14 μM 14C-labeled cAMP, pH 8.0, 30° C., 20 minutes, crude enzyme from rat brains; read-out: I50 cAMP PDE
Protocol: (§1) The test was carried out following essentially the method of A. L. Pichard and Y. U. Chung [Journal of Biological Chemistry, 251, 5726-5737 (1976)]. A crude enzymatic solution derived from rat brains was used as the source of cAMP PDE.
(§2) ^14 C-labeled cAMP was used as the substrate. It was employed in a 0.2M Tris-hydrochloric acid buffer solution (pH 8.0) in an amount sufficient to provide a final concentration of 0.14 μM. "Tris" is tris(hydroxymethyl)aminomethane. The substrate solution was mixed with an appropriate amount of the compound under test dissolved in 2-5 μl of dimethyl sulfoxide and with 20 μl of a snake venom solution and 40 μl of the crude enzyme solution. Sufficient Tris-hydrochloric acid buffer was added to make a total volume of 100 μl. The mixture was allowed to react at 30° C. for 20 minutes. At the end of this time, the reaction mixture was treated with an Amberlite (trade mark) IRP-58 resin and the level of residual adenosine radioactivity in the product was determined.

[2] = molecular target: cGMP PDE; assay: Phosphodiesterase (PDE) inhibitory activity, cGMP substrate; type: biochemical; conditions: cGMP as substrate, crude enzyme from rat brains; read-out: I50 cGMP PDE
Protocol: as §1, §2
The experiment was repeated, except that cyclic guanosine monophosphate (cGMP) was employed as the substrate instead of cAMP. The I50 value against cGMP PDE was also calculated.

[3] = tested on: cerebral blood flow; assay: Improving cerebral blood flow; type: in vivo, rabbit
Description: The "duration (T1/2)" is the time in minutes required for the increase in cerebral blood flow to reduce by one half.

Row | SMILES | IC50 [1] [µM] | IC50 [2] [µM] | further results
1 | Nc1ncnc2c1ncn2C1OC2=CC(C(=O)O)([C@@H](O)C(=O)O)OC2[C@@H]1N (stereo partly drawn) [Compound No. 248, 2'(S)-amino-2'-deoxygriseolic acid] | 3.2 | 12.7 | –
2 | Nc1ncnc2c1nc(S)n2C1OC2=CC(C(=O)O)([C@@H](O)C(=O)O)OC2[C@H]1O (some centres unmarked) [Compound No. 192, 8-mercaptogriseolic acid] | 30.4 | 49.8 | –
3 | Nc1ncnc2c1nc(Br)n2C1OC23OC(C(=O)O)C(C(=O)O)(OC2[C@H]1O)C3Br (stereo partly drawn) [Compound No. 187, 4',7'-anhydro-5',α,8-dibromo-4'α-hydroxygriseolic acid] | 35 | 32 | –
4 | COC(=O)C1=C(C)NC(C)=C(C(=O)OCCN(C)Cc2ccccc2)C1c1cccc([N+](=O)[O-])c1 (centres unmarked) [Nicardipine, reference compound] | – | – | Duration (T 1/2) ([3]; 0.01 mg/kg): 14 min; Increase in cerebral blood flow (Vp), ratio to papaverine 1 mg/kg ([3]; 0.01 mg/kg): 3.2
5 | Cn1c(=O)c2[nH]cnc2n(C)c1=O [theophylline, reference compound] | 360 | 196 | –
6 | COc1ncnc2c1ncn2C1OC2=CC(C(=O)O)([C@@H](O)C(=O)O)OC2[C@H]1O (some centres unmarked) [Compound No. 124, 6-desamino-6-methoxygriseolic acid] | 10 | 4.9 | –
7 | COc1nc2c(N)ncnc2n1C1OC2=CC(C(=O)O)([C@@H](O)C(=O)O)OC2[C@H]1O (some centres unmarked) [Compound No. 195, 8-methoxygriseolic acid] | 3.9 | 3.2 | –
8 | O=C(O)[C@H](O)C1(C(=O)O)C=C2OC(n3cnc4cncnc43)[C@H](O)C2O1 (some centres unmarked) [Compound No. 53, 6-desamino-6-hydrogriseolic acid] | 14 | 1.2 | –
9 | O=C(O)C(O)C1(C(=O)O)C=C2OC(n3cnc4c(=O)[nH]cnc43)C(O)C2O1 (centres unmarked) [Compound No. 51, 6-desamino-6-hydroxygriseolic acid] | 0.32 | 0.13 | –
10 | Nc1ncnc2c1ncn2C1OC2=CC(C(=O)O)([C@H](N)C(=O)O)OC2[C@H]1O (stereo partly drawn) [Compound No. 135, 7'(S)-amino-7'-deoxygriseolic acid] | 2 | 4.2 | –
11 | Nc1ncnc2c1ncn2C1OC2=CC(C(=O)O)([C@@H](O)C(=O)O)OC2[C@H]1OC(=O)c1ccccc1 (some centres unmarked) [Compound No. 36, O^2' -benzoylgriseolic acid] | 6.8 | 48 | –
12 | NNc1ncnc2c1ncn2C1OC2=CC(C(=O)O)([C@@H](O)C(=O)O)OC2[C@H]1O (some centres unmarked) [Compound No. 60, 6-desamino-6-hydrazinogriseolic acid] | 5.4 | 4.8 | –
13 | [N-]=[N+]=N[C@H]1C2OC(C(=O)O)([C@@H](O)C(=O)O)C=C2OC1n1cnc2c(N)ncnc21 (stereo partly drawn) [Compound No. 247, 2'(S)-azido-2'-deoxygriseolic acid] | 0.45 | 6.4 | –
14 | Nc1ncnc2c1ncn2C1OC2=CC(C(=O)O)([C@@H](O)C(=O)O)OC2[C@@H]1Br (stereo partly drawn) [Compound No. 143, 2'(S)-bromo-2'-deoxygriseolic acid] | 0.09 | 4.1 | –
15 | Nc1ncnc2c1ncn2C1OC2=CC(C(=O)O)([C@@H](O)C(=O)O)OC2[C@@H]1Cl (stereo partly drawn) [Compound No. 142, 2'(S)-chloro-2'-deoxygriseolic acid] | 0.15 | 2.5 | –
16 | Nc1ncnc2c1nc(Br)n2C1OC2=CC(C(=O)O)([C@@H](O)C(=O)O)OC2[C@H]1O (some centres unmarked) [Compound No. 196, 8-bromogriseolic acid] | 2.5 | 1.7 | –
17 | O=C(Nc1ncnc2c1ncn2C1OC2=CC(C(=O)O)([C@@H](OC(=O)c3ccccc3)C(=O)O)OC2[C@H]1O)c1ccccc1 (some centres unmarked) [Compound No. 39, N^6,O^7' -dibenzoylgriseolic acid] | 33 | 111 | –

Row | SMILES | IC50 [1] [µM] | IC50 [2] [µM] | further results
18 | O=C(O)C(O)C1(C(=O)O)C=C2OC(n3c(Br)nc4c(=O)[nH]cnc43)C(O)C2O1 (centres unmarked) [Compound No. 197, 8-bromo-6-desamino-6-hydroxygriseolic acid] | 25 | 13.1 | –
19 | Nc1ncnc2c1ncn2C1OC2=CC(C(=O)O)(C(Cl)C(=O)O)OC2[C@H]1O (some centres unmarked) [Compound No. 88, 7'-chloro-7'-deoxygriseolic acid] | 1.5 | 14.8 | –
20 | O=C(O)[C@H](O)C1(C(=O)O)C=C2OC(n3cnc4c(NCc5ccccc5)ncnc43)[C@H](O)C2O1 (some centres unmarked) [Compound No. 63, N^6 -benzylgriseolic acid] | 7.4 | 9.7 | –
21 | CC[C@]12CCCN3CCc4c(n(c5ccccc45)[C@@](O)(C(=O)OC)C1)[C@@H]32 [Vincamine, reference compound] | – | – | Duration (T 1/2) ([3]; 1 mg/kg): 3.2 min; Increase in cerebral blood flow (Vp), ratio to papaverine 1 mg/kg ([3]; 1 mg/kg): 1.7; Duration (T 1/2) ([3]; 2.5 mg/kg): 2.1 min; Increase in cerebral blood flow (Vp), ratio to papaverine 1 mg/kg ([3]; 2.5 mg/kg): 3.2
22 | Nc1ncnc2c1ncn2C1OC2=CC(C(=O)O)([C@@H](O)C(=O)O)OC2[C@@H]1I (stereo partly drawn) [Compound No. 249, 2'-deoxy-2'(S)-iodogriseolic acid] | 0.44 | 2.8 | –
23 | Nc1ncnc2c1ncn2C1OC2=CC(C(=O)O)([C@H](Br)C(=O)O)OC2[C@H]1O (stereo partly drawn) [Compound No. 137, 7'(S)-bromo-7'-deoxygriseolic acid] | 3.4 | 19 | –
24 | [N-]=[N+]=N[C@H](C(=O)O)C1(C(=O)O)C=C2OC(n3cnc4c(N)ncnc43)[C@H](O)C2O1 (some centres unmarked) [Compound No. 81, 7'-azido-7'-deoxygriseolic acid] | 4.4 | 13 | –
25 | CC(=O)O[C@@H](C(=O)O)C1(C(=O)O)C=C2OC(n3cnc4c(=N)n(Cc5ccccc5)cnc43)[C@H](O)C2O1 (some centres unmarked) [Compound No. 46, O^7' -acetyl-N^1 -benzylgriseolic acid] | 1.8 | 0.9 | –
26 | Nc1ncnc2c1ncn2C1OC2=CC(C(=O)O)([C@@H](OC(=O)c3ccccc3)C(=O)O)OC2[C@H]1OC(=O)c1ccccc1 (some centres unmarked) [Compound No. 40, O^2',O^7' -dibenzoylgriseolic acid] | 3.2 | 90 | –
27 | Nc1ncnc2c1ncn2C1OC2=CC(C(=O)O)([C@H](O)C(=O)O)OC2[C@H]1O (stereo partly drawn) [Compound No. 140, 7'-deoxy-7'(S)-hydroxygriseolic acid] | 0.76 | 2.8 | –
28 | Nc1ncnc2c1ncn2C1OC2=CC(C(=O)O)([C@@H](OC(=O)c3ccccc3)C(=O)O)OC2[C@H]1O (some centres unmarked) [Compound No. 37, O^7' -benzoylgriseolic acid] | 0.31 | 2.9 | –
29 | CNc1ncnc2c1ncn2C1OC2=CC(C(=O)O)([C@@H](O)C(=O)O)OC2[C@H]1O (some centres unmarked) [Compound No. 58, N^6 -methylgriseolic acid] | 2 | 14 | –
30 | CC(=O)O[C@@H]1C2OC(C(=O)O)([C@@H](OC(C)=O)C(=O)O)C=C2OC1n1cnc2c(N)ncnc21 (some centres unmarked) [Compound No. 41, O^2',O^7' -diacetylgriseolic acid] | 9.3 | 243 | –
31 | CN(C)c1ncnc2c1ncn2C1OC2=CC(C(=O)O)([C@@H](O)C(=O)O)OC2[C@H]1O (some centres unmarked) [Compound No. 59, N^6 -dimethylgriseolic acid] | 31 | 39 | –
32 | N=c1c2ncn(C3OC4=CC(C(=O)O)([C@@H](O)C(=O)O)OC4[C@H]3O)c2ncn1Cc1ccccc1 (some centres unmarked) [Compound No. 45, N^1 -benzylgriseolic acid] | 0.6 | 1.2 | –
33 | Nc1ncnc2c1ncn2C1CC2OC(C(=O)O)([C@@H](O)C(=O)O)C=C2O1 (some centres unmarked) [Compound No. 144, 2'-deoxygriseolic acid] | 0.19 | 1.1 | –
